target: T1, human Bradykinin B1 receptor (Homo sapiens, UniProt P46663); test: Calcium flux Assay (FLIPR) with cells expressing human Bradykinin B1 receptor (hB1); assay type: cell-based; conditions: absence of 0.1% BSA in assay buffer; CHO-K1 cell line expressing human B1 receptor; agonist Lys-(Des-Arg)-Bradykinin; read-out: hB1 free IC50
T1 construct: host or cells: CHO-K1
T1 sequence (P46663 1-353): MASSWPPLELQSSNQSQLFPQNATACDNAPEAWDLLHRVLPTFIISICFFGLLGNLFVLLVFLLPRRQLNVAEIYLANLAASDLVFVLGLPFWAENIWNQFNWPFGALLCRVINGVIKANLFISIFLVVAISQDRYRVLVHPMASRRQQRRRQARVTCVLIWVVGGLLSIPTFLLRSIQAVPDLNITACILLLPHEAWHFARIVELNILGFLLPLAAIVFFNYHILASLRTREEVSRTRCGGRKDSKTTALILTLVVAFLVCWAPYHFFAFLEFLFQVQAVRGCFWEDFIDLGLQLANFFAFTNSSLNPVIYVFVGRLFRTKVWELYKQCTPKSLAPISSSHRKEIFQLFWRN
Method: The potency to inhibit the Bradykinin B1 receptor was determined for the compound examples of this invention in a cell-based fluorescent calcium-mobilisation assay. The assay measures the ability of compound examples to inhibit Bradykinin B1 receptor agonist-induced increase of intracellular free Ca^2+ in the cell line expressing Bradykinin B1 receptor. Specifically, calcium indicator-loaded cells are pre-incubated in the absence or presence of different concentrations of compound examples followed by the stimulation with a selective Bradykinin B1 receptor agonist peptide. The change of the intracellular Ca^2+ concentration is monitored with a fluorescent plate reader FLIPR^TETRA®
Calcium flux Assays (FLIPR) with cells expressing human Bradykinin B1 receptor (hB1) Calcium flux Assay (FLIPR) with recombinant cells for Bradykinin B1 receptor antagonist, either in the presence (hB1 IC50) or absence (hB1 free IC50) of 0.1% Bovine Serum Albumin (BSA) in assay buffer.
CHO—K1 cell line expressing human B1 receptor was purchased from Euroscreen (Gosselies, Belgium, with reference name hB1-D1). The cells were grown in Nutrient Mixture Ham's F12 (Sigma) containing 10% Foetal bovine serum (Sigma) and 400 μg/mL G418 (Sigma), 5 μg/mL puromycin (Sigma).
For the calcium flux assay, 80% confluent cells were detached from the culture vessels with Versene (Gibco), and seeded into 384-well plates (Cell binding Surface; Corning, N.Y.; #3683) at a density of 15,000 cells per well. Cells were seeded in a volume of 50 μL in medium without antibiotics and incubated overnight in a humidified atmosphere with 5% CO2 at 37° C. […] The calcium indicator loaded cells were incubated at 37° C. for 2 hrs. Extracellular dye was then removed and each well was filled with 45 μL of assay buffer. Cell plates were kept in dark until used. Example compounds were assayed at 8 concentrations in triplicate. Serial 10-fold dilutions in 100% DMSO were made at a 100-times higher concentration than the final concentration, and then diluted 1:10 in assay buffer. 5 μL of each diluted compound was added to the well of cell plates (yielding final concentration with 1% DMSO), and incubated for 30 min at 28° C. before the addition of B1 receptor agonist on the FLIPR instrument.
Agonist plates contained the agonist Lys-(Des-Arg)-Bradykinin (Bachem, Brackley) at 3.5×EC90 in assay buffer with 1% DMSO. The addition of agonist 20 μl per well to the assay plate was carried out on the FLIPR instrument while continuously monitoring Ca^2+-dependent fluorescence at 538 nm. A peptide antagonist Lys-(Des-Arg-Leu)-Bradykinin (Bachem, Brackley) at 20 μM was used to determine the full inhibition as control.
Peak fluorescence was used to determine the response to agonist obtained at each concentration of example compound by the following equation:
% Response=100*(RFU(example compound)−RFU(control))/(RFU(DMSO)−RFU(control)) • RFU means relative fluorescence units. • Control means full inhibition by the peptide antagonist Lys-(Des-Arg-Leu)-Bradykinin at 20
The response values were plotted against the logarithm of the example compound concentrations. The example compounds were tested in triplicates per plate and mean values were plotted in Excel XLfit to determine IC50 values, percentage of maximal inhibition and the Hill slopes.
IC50 values of example compounds in Calcium flux Assay (FLIPR) as shown in table 1 were determined according to the protocol described above in the absence of 0.1% BSA in assay buffer.

| IC50 | Compound |
| --- | --- |
| 21 nM | CCC(C)OC(=O)c1ccc(NC(=O)C2(c3ccc(F)c(F)c3)CC2)cc1-c1nnn[nH]1 (racemic) [Example 8, sec-Butyl 4-({[1-(3,4-difluorophenyl)cyclopropyl]carbonyl}amino)-2-(1H-tetrazol-5-yl)benzoate] |
| 60 nM | O=C(NCC1CCOCC1)c1ccc(NC(=O)C2(c3ccc(C(F)(F)F)cc3F)CC2)cc1-c1nnn[nH]1 [Example 48, 4-[({1-[2-Fluoro-4-(trifluoromethyl)phenyl]cyclopropyl}carbonyl)amino]-N-(tetrahydro-2H-pyran-4-ylmethyl)-2-(1H-tetrazol-5-yl)benzamide] |
| 409 nM | COC[C@H](C)NC(=O)c1ccc(NC(=O)C2(c3ccc(C(F)(F)F)cc3F)CC2)cc1-c1nnn[nH]1 [Example 51, 4-[({1-[2-Fluoro-4-(trifluoromethyl)phenyl]cyclopropyl}carbonyl)amino]-N-[(2S)-1-methoxypropan-2-yl]-2-(1H-tetrazol-5-yl)benzamide] |
| 5 nM | CCOC(=O)c1c(F)cc(NC(=O)C2(c3ccc(C(F)(F)F)cc3F)CC2)cc1-c1nnn[nH]1 [Example 59, Ethyl 2-fluoro-4-[({1-[2-fluoro-4-(trifluoromethyl)phenyl]cyclopropyl}-carbonyl)amino]-6-(1H-tetrazol-5-yl)benzoate] |
| 9 nM | O=C(OC1CCCC1)c1ccc(NC(=O)C2(c3ccc(C(F)(F)F)cc3F)CC2)cc1-c1nnn[nH]1 [Example 6, Cyclopentyl 4-[({1-[2-fluoro-4-(trifluoromethyl)phenyl]cyclopropyl}carbonyl)amino]-2-(1H-tetrazol-5-yl)benzoate] |
| 205 nM | CN(C(=O)c1ccc(NC(=O)C2(c3ccc(C(F)(F)F)cc3F)CC2)cc1-c1nnn[nH]1)C1CCCC1 [Example 41, N-cyclopentyl-4-[({1-[2-fluoro-4-(trifluoromethyl)phenyl]cyclopropyl}carbonyl)amino]-N-methyl-2-(1H-tetrazol-5-yl)benzamide] |
| 3 nM | CC[C@H](C)OC(=O)c1ccc(NC(=O)C2(c3ccc(C(F)(F)F)cc3F)CC2)cc1-c1nnn[nH]1 [Example 25, (2S)-Butan-2-yl 4-[({1-[2-fluoro-4-(trifluoromethyl)phenyl]cyclopropyl}carbonyl)amino]-2-(1H-tetrazol-5-yl)benzoate] |
| 21 nM | O=C(OC1CCCC1)c1ccc(NC(=O)C2(c3cccc(Cl)c3)CC2)cc1-c1nnn[nH]1 [Example 2, Cyclopentyl 4-({[1-(3-chlorophenyl)cyclopropyl]carbonyl}amino)-2-(1H-tetrazol-5-yl)benzoate] |
| 136 nM | CCOC(=O)c1ccc(NC(=O)C2(c3cccc(Cl)c3)CC2)cc1-c1nnn[nH]1 [Example 1, Ethyl 4-({[1-(3-chlorophenyl)cyclopropyl]carbonyl}amino)-2-(1H-tetrazol-5-yl)benzoate] |
| 51 nM | Cc1ccc(NC(=O)c2c(F)cc(NC(=O)C3(c4ccc(C(F)(F)F)cc4F)CC3)cc2-c2nnn[nH]2)nc1 [Example 63, 2-Fluoro-4-[({1-[2-fluoro-4-(trifluoromethyl)phenyl]cyclopropyl}carbonyl)amino]-N-(5-methylpyridin-2-yl)-6-(1H-tetrazol-5-yl)benzamide] |
| 13 nM | O=C(O[C@H]1CCOC1)c1ccc(NC(=O)C2(c3ccc(C(F)(F)F)cc3F)CC2)cc1-c1nnn[nH]1 [Example 19, (3S)-Tetrahydrofuran-3-yl 4-[({1-[2-fluoro-4-(trifluoromethyl)phenyl]cyclopropyl}carbonyl)amino]-2-(1H-tetrazol-5-yl)benzoate] |
| 1770 nM | CC(C)CN(C)C(=O)c1ccc(NC(=O)C2(c3ccc(C(F)(F)F)cc3F)CC2)cc1-c1nnn[nH]1 [Example 55, 4-[({1-[2-Fluoro-4-(trifluoromethyl)phenyl]cyclopropyl}carbonyl)amino]-N-isobutyl-N-methyl-2-(1H-tetrazol-5-yl)benzamide] |
| 62 nM | Cc1cc(NC(=O)C2(c3ccc(C(F)(F)F)cc3F)CC2)cc(-c2nnn[nH]2)c1C(=O)O[C@H]1CCOC1 [Example 65, (3S)-tetrahydrofuran-3-yl 4-[({1-[2-fluoro-4-(trifluoromethyl)phenyl]cyclopropyl}carbonyl)amino]-2-methyl-6-(1H-tetrazol-5-yl)benzoate] |
| 121 nM | CC[C@@H](C)NC(=O)c1ccc(NC(=O)C2(c3ccc(C(F)(F)F)cc3F)CC2)cc1-c1nnn[nH]1 [Example 37, N-[(2R)-butan-2-yl]-4-[({1-[2-fluoro-4-(trifluoromethyl)phenyl]cyclopropyl}carbonyl)amino]-2-(1H-tetrazol-5-yl)benzamide] |
| 59 nM | O=C(OC1CCCC1)c1ccc(NC(=O)C2(c3ccc(F)c(F)c3)CC2)cc1-c1nnn[nH]1 [Example 4, Cyclopentyl 4-({[1-(3,4-difluorophenyl)cyclopropyl]carbonyl}amino)-2-(1H-tetrazol-5-yl)benzoate] |
| 2 nM | O=C(OC1CCCC1)c1c(F)cc(NC(=O)C2(c3ccc(C(F)(F)F)cc3F)CC2)cc1-c1nnn[nH]1 [Example 61, Cyclopentyl 2-fluoro-4-[({1-[2-fluoro-4-(trifluoromethyl)phenyl]cyclopropyl}-carbonyl)amino]-6-(1H-tetrazol-5-yl)benzoate] |
| 13 nM | O=C(NCC1CCCCC1)c1ccc(NC(=O)C2(c3ccc(C(F)(F)F)cc3F)CC2)cc1-c1nnn[nH]1 [Example 44, N-(cyclohexylmethyl)-4-[({1-[2-fluoro-4-(trifluoromethyl)phenyl]cyclopropyl}carbonyl)amino]-2-(1H-tetrazol-5-yl)benzamide] |
| 1850 nM | CCC(C)N(C)C(=O)c1ccc(NC(=O)C2(c3ccc(C(F)(F)F)cc3F)CC2)cc1-c1nnn[nH]1 (single isomer, unassigned) [Example 58, N-sec-butyl-4-[({1-[2-fluoro-4-(trifluoromethyl)phenyl]cyclopropyl}carbonyl)-amino]-N-methyl-2-(1H-tetrazol-5-yl)benzamide] |
| 341 nM | COC1CCCN(C(=O)c2ccc(NC(=O)C3(c4ccc(C(F)(F)F)cc4F)CC3)cc2-c2nnn[nH]2)C1 (racemic) [Example 35, 1-[2-Fluoro-4-(trifluoromethyl)phenyl]-N-{4-[(3-methoxypiperidin-1-yl)carbonyl]-3-(1H-tetrazol-5-yl)phenyl}cyclopropanecarboxamide] |
| 70 nM | O=C(c1ccc(NC(=O)C2(c3ccc(C(F)(F)F)cc3F)CC2)cc1-c1nnn[nH]1)N1CCCCC1 [Example 34, 1-[2-Fluoro-4-(trifluoromethyl)phenyl]-N-[4-(piperidin-1-ylcarbonyl)-3-(1H-tetrazol-5-yl)phenyl]cyclopropanecarboxamide] |
| 22 nM | O=C(OC1CCOCC1)c1ccc(NC(=O)C2(c3ccc(C(F)(F)F)cc3F)CC2)cc1-c1nnn[nH]1 [Example 21, Tetrahydro-2H-pyran-4-yl 4-[({1-[2-fluoro-4-(trifluoromethyl)phenyl]cyclopropyl}carbonyl)amino]-2-(1H-tetrazol-5-yl)benzoate] |
| 143 nM | COC(C)(C)CNC(=O)c1ccc(NC(=O)C2(c3ccc(C(F)(F)F)cc3F)CC2)cc1-c1nnn[nH]1 [Example 52, 4-[({1-[2-Fluoro-4-(trifluoromethyl)phenyl]cyclopropyl}carbonyl)amino]-N-(2-methoxy-2-methylpropyl)-2-(1H-tetrazol-5-yl)benzamide] |

Reference: US20190177284A1, “TETRAZOLYL-CONTAINING CYCLOPROPANECARBOXAMIDES” (Bayer Pharma Aktiengesellschaft, priority 2017, published 2019)
